# Measured values: paper PMC12135709, “Discovery of the First Selective and Potent PROTAC Degrader for the Pseudokinase TRIB2” (European journal of medicinal chemistry, 2024)
# Target: T1, TRIB2 (Homo sapiens, UniProt Q92519)
# T1 sequence (Q92519 1-343): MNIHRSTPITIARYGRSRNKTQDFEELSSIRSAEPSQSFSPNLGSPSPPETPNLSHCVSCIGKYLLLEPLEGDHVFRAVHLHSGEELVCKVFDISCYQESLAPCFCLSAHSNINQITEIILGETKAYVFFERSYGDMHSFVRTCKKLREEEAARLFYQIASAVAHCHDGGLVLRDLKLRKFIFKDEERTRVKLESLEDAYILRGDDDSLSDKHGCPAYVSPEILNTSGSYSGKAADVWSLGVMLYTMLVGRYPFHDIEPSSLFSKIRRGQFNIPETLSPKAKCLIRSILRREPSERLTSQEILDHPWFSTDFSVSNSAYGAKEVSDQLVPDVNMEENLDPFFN
# Experiment: radiometric […]-ATP kinase assay with recombinant human TRIB2; supported by CETSA in PC3 cells
# Type: biochemical
row,IC50 [nM],SMILES
1,0.74,"O=C(Nc1ccc2c(c1)CNCC2)c1n[nH]c2ccc(-c3cccnc3F)cc12 [compound 1, 5-(2-fluoropyridin-3-yl)-N-(1,2,3,4-tetrahydroisoquinolin-7-yl)-1H-indazole-3-carboxamide]"
2,65.2,"O=C1CCC(N2C(=O)c3ccc(NCCCCCCCCCC(=O)N4CCc5ccc(NC(=O)c6n[nH]c7ccc(-c8cccnc8F)cc67)cc5C4)cc3C2=O)C(=O)N1 (centres unmarked) [5k, N-(2-(10-((2-(2,6-dioxopiperidin-3-yl)-1,3-dioxoisoindolin-5-yl)amino)-decanoyl)-1,2,3,4-tetrahydroisoquinolin-7-yl)-5-(2-fluoropyridin-3-yl)-1H-indazole-3-carboxamide]"
